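Cells were grown in 96-well plates and exposed to each compound for 48 hours at five concentrations; endpoints were interpolated linearly between bracketing concentrations, or set to the highest concentration if not reached. Definition used: TGI = concentration required for complete inhibition of growth.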
How the values were obtained:
Experiment in all cases: NCI anticancer screen, dose series, 48 h
[1] = system: 786-0 renal
[2] = system: A498 renal
[3] = system: A549 NSCLC
[4] = system: ACHN renal
[5] = system: CCRF-CEM leukemia
[6] = system: HCC-2998 colon
[7] = system: HL-60(TB) leukemia
[8] = system: HOP-62 NSCLC
[9] = system: HT29 colon
[10] = system: IGROV1 ovarian
[11] = system: K-562 leukemia
[12] = system: KM12 colon
[13] = system: LOX IMVI melanoma
[14] = system: MALME-3M melanoma
[15] = system: MDA-N
[16] = system: NCI-H522 lung
[17] = system: TK-10 renal
[18] = system: UACC-257 melanoma
[19] = system: MDA-MB-231 breast

Row | SMILES | TGI [1] [µM] | TGI [2] [µM] | TGI [3] [µM] | TGI [4] [µM] | TGI [5] [µM] | TGI [6] [µM] | TGI [7] [µM] | TGI [8] [µM] | TGI [9] [µM] | TGI [10] [µM] | TGI [11] [µM] | TGI [12] [µM] | TGI [13] [µM] | TGI [14] [µM] | TGI [15] [µM] | TGI [16] [µM] | TGI [17] [µM] | TGI [18] [µM] | TGI [19] [µM]
1 | CCCCn1c(C)c(C(=O)OCC)c2cc(OCc3ccc(C(=O)Nn4c(C)ccc4C)cc3)c(Br)cc21 | > 100 | > 100 | > 100 | > 100 | > 100 | > 100 | > 100 | > 100 | > 100 | > 100 | > 100 | > 100 | > 100 | > 100 | > 100 | > 100 | > 100 | > 100 | –
2 | C=CCN1C(=O)/C(=C/c2ccccc2)NC1=S | > 100 | > 100 | > 100 | > 100 | > 100 | > 100 | > 100 | > 100 | > 100 | > 100 | > 100 | > 100 | > 100 | > 100 | – | > 100 | > 100 | > 100 | > 100
3 | C/C(=N\NC(=S)N1CC2CCC(CC2)C1)c1ccncn1 | 2.86 | 2.84 | 1.94 | 3.28 | – | – | 1.44 | 12.1 | 5.5 | 3.78 | – | 3.16 | 3.1 | 1.42 | 15.4 | 2.32 | 2.56 | 2.91 | –
4 | CN(C)/N=C(\CCN1CCCC1)CC(c1ccccc1)c1c(O)c2ccccc2oc1=O (stereo not drawn) | > 100 | – | > 100 | > 100 | > 100 | > 100 | 72.9 | > 100 | > 100 | > 100 | > 100 | – | > 100 | > 100 | – | > 100 | > 100 | > 100 | –
5 | CC(=O)OC1CC2OC(Cc3ccccc32)O1 (stereo not drawn) | > 100 | – | > 100 | > 100 | > 100 | > 100 | > 100 | > 100 | > 100 | > 100 | > 100 | > 100 | > 100 | 63.7 | – | > 100 | > 100 | > 100 | –
6 | CCN(CC)C(=O)C/C(C)=N/NC(=O)c1ccncc1 | > 100 | – | > 100 | – | > 100 | > 100 | > 100 | > 100 | > 100 | > 100 | > 100 | > 100 | > 100 | > 100 | – | > 100 | > 100 | > 100 | –
7 | COC(=O)C(=O)C(C(=O)C=C(C)C)C(=O)C(=O)Nc1ccc(Cl)cc1C (stereo not drawn) | > 100 | > 100 | > 100 | > 100 | > 100 | > 100 | > 100 | > 100 | > 100 | > 100 | > 100 | > 100 | > 100 | > 100 | – | > 100 | > 100 | > 100 | –
8 | O=C(c1ccccc1)c1c2ccccn2c2cccc[n+]12 | > 100 | > 100 | > 100 | – | > 100 | > 100 | > 100 | > 100 | > 100 | > 100 | > 100 | > 100 | > 100 | > 100 | – | – | > 100 | > 100 | > 100
9 | Cc1oc2nc(N(C)C)nc(Cl)c2c1C | > 100 | > 100 | > 100 | > 100 | > 100 | > 100 | > 100 | > 100 | > 100 | > 100 | > 100 | > 100 | – | – | – | > 100 | > 100 | > 100 | > 100
10 | COC(=O)C(=O)C(C(=O)C(=O)Nc1ccc(C)cc1C)c1nc2ccccc2[nH]c1=O (stereo not drawn) | > 100 | 58.8 | > 100 | > 100 | > 100 | > 100 | > 100 | > 100 | > 100 | > 100 | > 100 | > 100 | > 100 | > 100 | – | 93 | > 100 | > 100 | –
11 | COC(=O)CCC(=O)NC1c2cccc3cccc(c23)Cn2c(=O)n(C)c(=O)n21 (stereo not drawn) | > 100 | – | > 100 | > 100 | > 100 | > 100 | – | > 100 | > 100 | > 100 | > 100 | > 100 | > 100 | > 100 | – | > 100 | > 100 | > 100 | > 100
12 | CO/N=C(\C(=O)Nc1cncs1)c1csc(NC(c2ccccc2)(c2ccccc2)c2ccccc2)n1 | > 10 | > 10 | > 10 | > 10 | > 10 | > 10 | > 10 | > 10 | > 10 | > 10 | > 10 | > 10 | > 10 | > 10 | > 10 | > 10 | > 10 | > 10 | –
13 | O=C(c1ccc(Cl)cc1Cl)N(C(=O)N1CCCCC1)c1ccccc1 | > 100 | > 100 | – | > 100 | > 100 | – | > 100 | – | > 100 | > 100 | > 100 | > 100 | > 100 | > 100 | > 100 | – | > 100 | > 100 | > 100
14 | COc1ccc(OC)c2c1C(=O)C(Cl)=C(N1CCN(CCOCCO)CC1)C2=O | 13.3 | 30.5 | 39 | 30.3 | 14.1 | 24.9 | 3.33 | 22.7 | 19.8 | – | 4.24 | 37.2 | – | 34.9 | – | 20.9 | 33.4 | 33 | 27.7

Reference: PubChem BioAssay (NCI)
